In US8460635B2, “Fenretinide derivatives and uses thereof as therapeutic, diagnostic and imaging agents” (Albert Einstein College of Medicine of Yeshiva University, priority 2008, dated 2013):
“Also recorded” adds a separate entry of the source. Read-outs that look alike come from different tables or passages of the source.

Columns and labels:
[1] = Precipitation / solubility in cell culture medium; assay type: physicochemical
Experimental: (§1) The rhabdoid cell line (MON) (88) was cultured in RPMI 1640 supplemented with 10% fetal bovine serum, 2 mM L-glutamine, 50 U/ml penicillin, and 50 μg/ml streptomycin at 37° C. with 5% CO2 and 95% humidified air. 4-(Fenretinide) was either obtained from NCI or synthesized in house. Fenretinide or its synthetic derivatives were reconstituted in 100% ethanol as a 10 mM solution and the aliquots were stored frozen at −80° C., protected from light. Working solutions (50 μM or 200 μM) and serial dilutions were prepared by diluting the stock solution with culture medium, such that the concentration of ethanol was <2% in all dilutions.

[2] = system: MON cells; assay: FACS analysis of cell cycle and sub-G1 (apoptosis); assay type: cell-based; conditions: 2 days
Experimental: (§2) FIG. 3A-3B. Induction of cell cycle arrest and apoptosis by halogen derivatives of fenretinide. A. Cell cycle profile determined by FACS analysis of MON cells treated with either 5 or 10 μM concentrations of fenretinide and its derivatives for 2 days. Percentage of cells at various stages of cell cycle (G1, S and G2) is indicated. B. Percentage of MON cells at sub-G1 when exposed for 2 days to fenretinide and its derivatives.
as §2, with “4A-4B.” for “3A-3B.”, “peptidomimetic” for “halogen”
(§3) The effects of fenretinide, halogen substitutes, and peptidomimetic derivatives on cell cycle regulation and apoptosis were tested by using: i) cell survival assay (MTS); ii) FACS analysis; and iii) immunoblot analysis to determine the effect on Cyclin D1.

[3] = system: MON (INI1−/−) rhabdoid tumor cells; assay: MTS survival assay of rhabdoid tumor cells; assay type: cell-based; conditions: for cytotoxic activity against rhabdoid tumor cells (in words): compared with 4-HPR
Experimental: FIG. 1A-1D. Effect of 4HPR derivatives with phenyl group substitutions on survival of rhabdoid tumors cells. MON (INI1−/−) cells were treated with serial dilutions of the 4HPR, ATRA and 4HPR derivatives for three days. Survival assay was carried out as described using MTS assay kit. Percentage of cell survival plotted against concentration of drugs (Mean+/−SEM).
FIG. 2. Effect of fenretinide peptidomimitic derivatives on the survival of rhabdoid tumor cells in culture. % survival of MON rhabdoid tumor cells treated with fenretinide derivatives, when compared to the vehicle treated control. The data in all the panels represent the average of triplicate experiments, and the standard error is indicated.
as §1
Aliquots of 8×10^3 MON cells were plated in 96-well microdilution plates. Twenty four hours after seeding, the cells were treated with serial dilutions of each drug. Following incubation for 24 or more hours, each well was stained with 20 μl of MTS [3-(4,5-dimethylthiazol-2-yl)-5-(3-carboxymethoxyphenyl)-2-(4-sulfophenyl)-2H-tetrazolium, inner salt] that was mixed 20:1 V/V in PMS (phenazine methosulphate, CellTiter 96® AQueous Non-Radioactive Cell Proliferation Assay Kit, Promega, Madison, Wis.) added to each of the well in the microtiter plate containing 100 μl of culture medium. After 4 h incubation, the plates were analyzed by an ELISA plate reader (Wallac Victor, 1420 Multilabel Counter, Perkin Elmer) at 490 nm wave-length. Cell plating, drug treatment and survival assay were performed using the epMotion 5070 automated liquid handling robotic system (Eppendorff, Westbury, N.Y.).
Statistical analysis of the data was carried out using GraphPad Prism (San Diego, Calif.). Relative IC50 values were calculated using the nonlinear regression curve fit with sigmoidal dose response (variable slope) function. Relative IC50 is defined as the concentration giving a response exactly half way between the fitted top and bottom of the survival curve when graphed as percent inhibition versus the log of the concentration of compound. The fitting error, or standard error describes the error involved in fitting the curve.

[4] = system: Cyclin D1; assay: Immunoblot analysis of Cyclin D1 expression; assay type: cell-based; conditions: for Repression of Cyclin D1: biomarker expression, Table 3
Experimental: FIG. 5A-5B. Effect of fenretinide, its derivatives and peptidomimetic compounds on expression of Cyclin D1. Immunoblot analysis to determine the effect of fenretinide and its halogen substitutes (A) and peptidomimetic compounds (B). GAPDH is a loading control.
This assay was performed using a routine laboratory protocol as previously described using chemiluminescence detection method (30). The following antibodies were used: polyclonal α-cyclin D1 Ab-3 (NeoMarkers, Cat# RB-010-P0), monoclonal α-cyclin D1 DCS-6 (NeoMarkers, Cat# MS-210-P1), α-β-Actin (Sigma Cat# A5441) and α-Tubulin-α (Sigma, Cat # T5168).
as §3

[5] = system: MON (INI1−/−) rhabdoid tumor cells; assay: MTS survival assay of rhabdoid tumor cells; assay type: cell-based; conditions: charcoal adsorbed serum
[6] = 72 h, MON cells, three days, compounds in FIG. 1A-1D, concentration of drug required to kill 50% of cells, read-out: IC50
[7] = MON rhabdoid cells, survival assay, values in text, read-out: IC50
[8] = regular FBS, read-out: IC50 (in regular FBS)
[9] = MON cells, three days, compounds in FIG. 1A-1D, concentration of drug required to kill 50% of cells, read-out: IC50

Molecule	IC50 [3, 6]	IC50 [3, 7]	IC50 [3, 8]	% G1 ([2]; 5 μM, Table 5)	% G2 ([2]; 5 μM, Table 5)	% S ([2]; 5 μM, Table 5)	SubG1 (percentage of MON cells at sub-G1) ([2]; 5 μM, Table 5)	% G1 ([2]; 10 μM, Table 5)	% G2 ([2]; 10 μM, Table 5)	% S ([2]; 10 μM, Table 5)	SubG1 (percentage of MON cells at sub-G1) ([2]; 10 μM, Table 5)	cytotoxic activity against rhabdoid tumor cells (in words) [3]	further results
(2E,4E,6E,8E)-[3,7-Dimethyl-9-(2,6,6-trimethyl-1-cyclohexenyl)-nona-2,4,6,8-tetraenoylamino]-(3-nitro, 4-hydroxy)phenylamide [5(k)]													behaviour in cell culture medium (precipitation / insolubility) [1]: insoluble in cell culture medium
CCC1=C(C)/C(=C/c2ccc(C(=O)Nc3ccc(O)cc3)cc2)CCC1(C)C [Compound 11a, (E)-4-((3-ethyl-2,4,4-trimethylcyclohex-2-enylidene)methyl)-N-(4-hydroxyphenyl)benzamide]													% G1 ([2]; 5 μM, Table 6): 59.33%; % G2 ([2]; 5 μM, Table 6): 26.19%; % S ([2]; 5 μM, Table 6): 14.49%; SubG1 (percentage of MON cells at sub-G1) ([2]; 5 μM, Table 6): 53.97%; % G1 ([2]; 10 μM, Table 6): 60.40%; % G2 ([2]; 10 μM, Table 6): 22.84%; % S ([2]; 10 μM, Table 6): 16.76%; SubG1 (percentage of MON cells at sub-G1) ([2]; 10 μM, Table 6): 62.59%; behaviour in cell culture medium (precipitation / insolubility) [1]: precipitated in cell culture medium
CC1=C(/C=C/C(C)=C/C=C/C(C)=C/C(=O)Nc2ccc(O)c(Cl)c2)C(C)(C)CCC1 [5(i), (2E,4E,6E,8E)-[3,7-Dimethyl-9-(2,6,6-trimethyl-1-cyclohexenyl)-nona-2,4,6,8-tetraenoylamino]-(3-chloro, 4-hydroxy)phenylamide]	12.5 µM	10 µM	10 µM										Repression of Cyclin D1 [4]: Yes; IC50 [5]: 1.5 µM
COc1ccc(NC(=O)/C=C(C)/C=C/C=C(C)/C=C/C2=C(C)CCCC2(C)C)cc1 [5(f), (2E,4E,6E,8E)-[3,7-Dimethyl-9-(2,6,6-trimethyl-1-cyclohexenyl)-nona-2,4,6,8-tetraenoylamino]-(4-methoxy)phenylamide]													behaviour in cell culture medium (precipitation / insolubility) [1]: insoluble in cell culture medium
CC1=C(/C=C/C(C)=C/C=C/C(C)=C/C(=O)Nc2ccc(F)cc2)C(C)(C)CCC1 [5(a)]	150 µM	≥ 150 µM	> 50 µM	78.56%	14.61%	6.84%	8.30%	65.50%	27.25%	7.25%	9.44%		IC50 [5]: > 15 µM
(2E,4E,6E,8E)-[3,7-Dimethyl-9-(2,6,6-trimethyl-1-cyclohexenyl)-nona-2,4,6,8-tetraenoylamino]-(4-ethylalcohol)phenylamide [5(m)]												lack of activity	IC50 [3, 9]: > 50 µM
CC1=C(/C=C/C(C)=C/C=C/C(C)=C/C(=O)Nc2ccc(O)c(F)c2)C(C)(C)CCC1 [5(h), (2E,4E,6E,8E)-[3,7-Dimethyl-9-(2,6,6-trimethyl-1-cyclohexenyl)-nona-2,4,6,8-tetraenoylamino]-(3-fluoro,4-hydroxy)phenylamide]	8 µM	8 µM	8 µM	87.23%	7.10%	5.67%	38.78%	87.22%	6.97%	5.81%	50.79%		Repression of Cyclin D1 [4]: Yes
(2E,4E,6E,8E)-[3,7-Dimethyl-9-(2,6,6-trimethyl-1-cyclohexenyl)-nona-2,4,6,8-tetraenoylamino]-(4-nitro)phenylamide [5(e)]		> 200 µM											IC50 [3, 9]: > 200 µM
(2E,4E,6E,8E)-[3,7-Dimethyl-9-(2,6,6-trimethyl-1-cyclohexenyl)-nona-2,4,6-tetraenoylamino]-(4-alcohol)phenylamide [5(l)]												lack of activity	IC50 [3, 9]: 25 µM
CC1=C(/C=C/C(C)=C/C=C/C(C)=C/C(=O)Nc2ccc(O)c(I)c2)C(C)(C)CCC1 [5(j), (2E,4E,6E,8E)-[3,7-Dimethyl-9-(2,6,6-trimethyl-1-cyclohexenyl)-nona-2,4,6,8-tetraenoylamino]-(3-Iodo, 4-hydroxy)phenylamide]	3 µM	~3 µM	3 µM	86.11%	7.83%	6.06%	26.48%	87.97%	6.87%	5.16%	34.21%	more active when compared to parent Fenretinide	Repression of Cyclin D1 [4]: Yes; IC50 [5]: 0.8 µM
CC1=C(/C=C/C(C)=C/C=C/C(C)=C/C(=O)O)C(C)(C)CCC1 [ATRA, All-trans retinoic acid, reference compound]	100 µM	100 µM	> 50 µM	82.64%	11.04%	6.32%	8.22%	82.08%	11.21%	6.71%	9.27%	did not have appreciable cytotoxic activity; also recorded: did not exhibit activities against rhabdoid tumor cells	Repression of Cyclin D1 [4]: No; down modulation of Cyclin D1 (in words) ([4]; rhabdoid tumor cells): unable to down modulate Cyclin D1; % G1 ([2]; 5 μM, Table 6): 82.64%; % G2 ([2]; 5 μM, Table 6): 9.07%; % S ([2]; 5 μM, Table 6): 8.58%; SubG1 (percentage of MON cells at sub-G1) ([2]; 5 μM, Table 6): 8.22%; % G1 ([2]; 10 μM, Table 6): 82.08%; % G2 ([2]; 10 μM, Table 6): 8.18%; % S ([2]; 10 μM, Table 6): 8.51%; SubG1 (percentage of MON cells at sub-G1) ([2]; 10 μM, Table 6): 9.27%; IC50 [5]: > 15 µM
(2E,4E,6E,8E)-[3,7-Dimethyl-9-(2,6,6-trimethyl-1-cyclohexenyl)-nona-2,4,6,8-tetraenoylamino]-(4-bromo)phenylamide [5(c)]													IC50 [3, 9]: 150 µM
CCC1=C(C)/C(=C/c2ccc(C(=O)O)cc2)CCC1(C)C [Compound 8]		> 50 µM											IC50 ([3]; MON cells, nonlinear regression, sigmoidal dose response, read-out: Relative IC50): > 50 µM
CC1=C(/C=C/C(C)=C/C=C/C(C)=C/C(=O)Nc2ccc(Cl)cc2)C(C)(C)CCC1 [5(b), (2E,4E,6E,8E)-[3,7-Dimethyl-9-(2,6,6-trimethyl-1-cyclohexenyl)-nona-2,4,6,8-tetraenoylamino]-(4-chloro)phenylamide]	> 200 µM	≥ 150 µM											
CC1=C(/C=C/C(C)=C/C=C/C(C)=C/C(=O)Nc2ccc(O)cc2O)C(C)(C)CCC1 [5(n), (2E,4E,6E,8E)-[3,7-Dimethyl-9-(2,6,6-trimethyl-1-cyclohexenyl)-nona-2,4,6,8-tetraenoylamino]-(2,4-dihydroxy)phenylamide]	8 µM	8 µM	8 µM	85.42%	8.48%	6.11%	25.81%	88.30%	6.05%	5.65%	43.53%	retains 4-HPR activity	
